# Experimental data reported in US20200315998A1, “COMPOSITION FOR IMPROVING INTESTINAL BARRIER FUNCTION” (SUNTORY HOLDINGS LIMITED, priority 2017, published 2020).
# Tested on: Caco-2 cells
# Experiment: Evaluation of intestinal barrier function improvement: TEER reduction suppression in Caco-2 monolayer with inflammatory cytokines (TNFα, IL-1β, IFNγ)
# Type: cell-based, human
# Conditions: for Synergistic effect (M.V./T.V.) / TEER reduction suppression ratio (%) +gallic acid (actual measurement value) (M.V.) / Synergistic effect (M.V./T/V/): combined use of phenolic compound and gallic acid; for Relative value of TEER reduction suppression ratio: sample alone 1 μM; for Synergistic effect (relative value of actual measurement value / relative value of theoretical value): combined use of the phenolic compound with gallic acid, 1 μM each (Table 1); for TEER reduction suppression ratio (%) +gallic acid (theoretical value) (T.V.): sum of ratios of phenolic compound alone and gallic acid alone
# Text: The intestinal barrier function improvement effect is indicated by, for example, increase in the electrical resistance value (transepithelial electric resistance: TEER) of the intestinal epithelial cells or suppression of the decrease in the TEER. A substance increasing the TEER or suppressing the decrease thereof has the action of normalizing or strengthening the tight junction in the intestinal epithelial cells. The intestinal barrier function improvement effect is also indicated by decrease in the amount of a substance permeating from the intestinal side of the intestinal epithelial cells to the inside of the body. The person skilled in the art can select a specific method of evaluating the intestinal barrier function improvement effect depending on the purpose. For exarple, as shown in Examples to be described later, a method for measuring TEER using an intestinal permeation model using human intestinal epithelial cells (Caco-2 cells) can be used. Specifically, inflammatory cytokine (TNFα, IL-1β, IFNγ and the like) is added into Caco-2 monolayer cultured cells to produce a state where the intestinal barrier function can be collapsed in human. If the addition of a test substance suppresses the decrease in the TEER as compared with the case where the substance is not added, the test substance can be evaluated to have the intestinal barrier function improvement effect.
# Caco-2 cells were cultured for three weeks at 37° C. in Transwell (manufactured by Millicell Corporation) using DMEM (Dulbecco's modified Eagle's medium). A medium was removed from a plate of cultured Caco-2 cells, and the well was washed 3 times with serum-free DMEM. The well was filled with the medium. Then, the transepithelial electrical resistance (TEER) of Caco-2 monolayer cells was measured by Millicell-ERS (manufactured by Millipore Corporation). Cells (TEER≥1000 Ω·cm^2) determined that a sufficient tight junction was formed were selected, and used for the next screening. Then, to test solutions (media) on both apical and basolateral membrane sides, a sample, TNFα (40 ng/mL), IL-1β (20 ng/mL), and IFNγ (10 ng/mL) were added, followed by cultivating for 48 hours. The sample was dissolved in dimethyl sulfoxide (DMSO), and the solution was then added to the test solutions. In this case, a well to which inflammatory cytokine (TNFα, IL-1β, and IFNγ) and the sample were not added was provided as normal. A well to which inflammatory cytokine was added and the sample was not added was provided as control. After the cultivation, TEER was measured again, to evaluate whether the sample suppressed the reduction (decrease) of TEER due to the inflammatory cytokine.
# The TEER reduction suppression ratio (%) due to the sample was determined according to the following formula from the TEER values of the well to which the sample was added, normal, and control.
# (Calculating formula of TEER reduction suppression ratio) TEER reduction suppression ratio (%)=100×((TEER of well to which sample is added)−(TEER of control))/((TEER of normal)−(TEER of control))
# In this evaluation system, as the TEER reduction suppression ratio (%) is higher, an intestinal barrier function improvement effect is higher.
Molecule,Synergistic effect (M.V./T.V.) (each 1 μM),TEER reduction suppression ratio (%) +gallic acid (actual measurement value) (M.V.) (each 1 μM),Synergistic effect (M.V./T/V/) (each 10 μM),TEER reduction suppression ratio (%) +gallic acid (actual measurement value) (M.V.) (each 10 μM),also measured
"O=C(OC[C@H]1O[C@@H](OC(=O)c2cc(O)c(O)c(O)c2)[C@H](OC(=O)c2cc(O)c(O)c(O)c2)[C@@H](OC(=O)c2cc(O)c(O)c(O)c2)[C@@H]1O)c1cc(O)c(O)c(O)c1 [1,2,3,6-tetra-O-galloyl-β-D-glucose]",1.5,81%,,,
"O=c1c(-c2ccc(O)cc2)coc2cc(O)ccc12 [Daidzein, daidzein]",,,1.8,50%,
"O=C1c2c(O)cc(O)cc2O[C@H](c2ccc(O)c(O)c2)[C@H]1O [Taxifolin, taxifolin]",,,2.0,59%,
O=C(O[C@@H]1O[C@H](CO)[C@@H](O)[C@H](O)[C@H]1O)c1cc(O)c(O)c(O)c1 [β-glucogallin],2.4,48%,,,
"O=c1c(O)c(-c2ccc(O)cc2)oc2cc(O)cc(O)c12 [Kaempferol, kaempferol]",,,2.5,43%,
"O=C(/C=C/c1ccc(O)cc1)c1c(O)cc(O)cc1O [Naringenin chalcone, 4,2′,4′,6′-tetra-hydroxy chalcone]",,,1.7,51%,
"O=C(O)/C=C/c1cccc(O)c1 [3-Coumaric acid, 3-coumaric acid]",,,1.2,48%,
"O=C(O[C@@H]1Cc2c(O)cc(O)cc2O[C@@H]1c1ccc(O)c(O)c1)c1cc(O)c(O)c(O)c1 [Epicatechin gallate, epicatechin gallate]",,,2.3,110%,
"O=C(OC[C@H]1O[C@@H](OC(=O)c2cc(O)c(O)c(O)c2)[C@H](O)[C@@H](O)[C@@H]1OC(=O)c1cc(O)c(O)c(O)c1)c1cc(O)c(O)c(O)c1 [1,4,6-tri-O-galloyl-β-D-glucose]",1.7,40%,,,
"O=c1c(O)c(-c2cc(O)c(O)c(O)c2)oc2cc(O)cc(O)c12 [Myricetin, myricetin]",,,1.2,75%,
"O=C1C[C@@H](c2ccc(O)cc2)Oc2cc(O)cc(O)c21 [Naringenin, naringenin]",,,2.0,61%,
"Oc1cc(O)c2c(c1)O[C@H](c1cc(O)c(O)c(O)c1)[C@@H](O)C2 [Galloatechin (GC), gallocatechin]",,,,,"Relative value of TEER reduction suppression ratio (Evaluation 3, gallocatechin (GC) set to 1.0): 1.0; Synergistic effect (relative value of actual measurement value / relative value of theoretical value): 2.5"
"Oc1cc(O)c2c(c1)O[C@H](c1ccc(O)c(O)c1)[C@H](O)[C@H]2c1c(O)cc(O)c2c1O[C@H](c1ccc(O)c(O)c1)[C@@H](O)C2 [Procyanidin B1, procyanidin B1]",,,2.4,74%,TEER reduction suppression ratio (%) +gallic acid (theoretical value) (T.V.) (10 μM each): 31%
"OC[C@H]1O[C@@H](Oc2cc(O)cc(/C=C/c3ccc(O)cc3)c2)[C@H](O)[C@@H](O)[C@@H]1O (relative stereo) [trans-Piceid, trans-piceid]",,,1.5,65%,TEER reduction suppression ratio (%) +gallic acid (theoretical value) (T.V.) (10 μM each): 45%
"O=c1c(O[C@@H]2O[C@H](CO)[C@@H](O)[C@H](O)[C@H]2O)c(-c2ccc(O)c(O)c2)oc2cc(O)cc(O)c12 [Quercetin-3-O-glucopyranoside, quercetin-3-O-glucopyranoside]",,,1.5,47%,
"O=c1c(-c2ccc(O)cc2)coc2cc(O)cc(O)c12 [Genistein, genistein]",,,1.6,58%,
"O=c1c(O)cc([C@H]2Oc3cc(O)cc(O)c3C[C@H]2O)cc2c([C@H]3Oc4cc(O)cc(O)c4C[C@H]3O)cc(O)c(O)c12 [Theaflavin, theaflavin]",,,1.6,98%,
"O=C(O[C@@H]1O[C@@H]2COC(=O)c3cc(O)c(O)c(O)c3-c3c(cc(O)c(O)c3O)C(=O)O[C@H]([C@H]1O)[C@@H]2O)c1cc(O)c(O)c(O)c1 [Corilagin, corilagin]",3.4,76%,,,
"COc1cc(-c2[o+]c3cc(O)cc(O)c3cc2O)cc(O)c1O [Petunidin chloride, petunidin chloride]",,,1.9,70%,
"Oc1cc(O)c2c(c1)O[C@H](c1ccc(O)c(O)c1)[C@H](O)C2 [Epicatechin (EC), epicatechin]",,,,,"Relative value of TEER reduction suppression ratio (Evaluation 2, epicatechin (EC) set to 1.0): 1.0; Synergistic effect (relative value of actual measurement value / relative value of theoretical value): 1.7"
"Oc1cc(O)c2c(c1)O[C@H](c1cc(O)c(O)c(O)c1)[C@H](O)C2 [Epigallocatechin (EGC), epigallocatechin]",,,,,"Relative value of TEER reduction suppression ratio (Evaluation 4, epigallocatechin (EGC) set to 1.0): 1.0; Synergistic effect (relative value of actual measurement value / relative value of theoretical value): 1.5"
"O=C(OC[C@H]1O[C@@H](O)[C@H](OC(=O)c2cc(O)c(O)c(O)c2)[C@@H](OC(=O)c2cc(O)c(O)c(O)c2)[C@@H]1OC(=O)c1cc(O)c(O)c(O)c1)c1cc(O)c(O)c(O)c1 [2,3,4,6-tetra-O-galloyl-β-D-glucose]",2.0,90%,,,
eugeniflorin D2,1.3,102%,,,TEER reduction suppression ratio (%) +gallic acid (theoretical value) (T.V.) (1 μM each): 80%
"O=C(O)c1cc(O)c(O)c(O)c1Oc1cc2c(c(O)c1O)-c1c(cc(O)c(O)c1O)C(=O)O[C@@H]1C(COC2=O)O[C@@H](O)C2OC(=O)c3cc(O)c(O)c(O)c3-c3c(cc(O)c(O)c3O)C(=O)OC21 (stereo partly shown) [Praecoxin A, praecoxin A]",1.4,104%,,,
"O=c1c(O)c(-c2ccc(O)c(O)c2)oc2cc(O)cc(O)c12 [Quercetin, quercetin, reference compound]",,,1.7,61%,"TEER reduction suppression ratio (sample alone 100 μM, TNFα 40 ng/mL, IL-1β 20 ng/mL, IFNγ 10 ng/mL, 48 hours): 75.0%"
"C[C@@H]1O[C@@H](OC[C@H]2O[C@@H](Oc3c(-c4ccc(O)c(O)c4)oc4cc(O)cc(O)c4c3=O)[C@H](O)[C@@H](O)[C@@H]2O)[C@H](O)[C@H](O)[C@H]1O [Rutin, rutin]",,,2.9,45%,
catechin [Catechin (CA)],,,,,"Relative value of TEER reduction suppression ratio (Evaluation 1, catechin (CA) set to 1.0): 1.0; Synergistic effect (relative value of actual measurement value / relative value of theoretical value): 2.0"
"O=C(OC[C@H]1O[C@@H](OC(=O)c2cc(O)c(O)c(O)c2)[C@H](OC(=O)c2cc(O)c(O)c(O)c2)[C@@H](O)[C@@H]1OC(=O)c1cc(O)c(O)c(O)c1)c1cc(O)c(O)c(O)c1 [1,2,4,6-tetra-O-galloyl-β-D-glucose]",1.4,56%,,,
"O=C(OC[C@H]1O[C@@H](OC(=O)c2cc(O)c(O)c(O)c2)[C@H](OC(=O)c2cc(O)c(O)c(O)c2)[C@@H](OC(=O)c2cc(O)c(O)c(O)c2)[C@@H]1OC(=O)c1cc(O)c(O)c(O)c1)c1cc(O)c(O)c(O)c1 [1,2,3,4,6-penta-O-galloyl-β-D-glucose]",1.4,91%,,,
"O=C1O[C@@H]2C3COC(=O)c4cc(O)c(O)c(O)c4-c4c(cc(O)c(O)c4O)C(=O)O[C@H]2C(OC(=O)c2cc(O)c(O)c4c2C2C1=CC(=O)C(O)(O)[C@@]2(O)O4)[C@H](OC(=O)c1cc(O)c(O)c(O)c1)O3 (stereo partly shown) [Geraniin, geraniin]",2.4,119%,,,
